US20260184663A1, “INDENE COMPOUNDS, PHARMACEUTICAL COMPOSITIONS THEREOF, AND THEIR THERAPEUTIC APPLICATIONS” (NucMito Pharmaceuticals co. Ltd., priority 2022, published 2026)

Experiments:
Type in all cases: cell-based
[1] = system: SW480 (colon cancer); experiment: Antiproliferative activity (CCK-8 cell viability), SW480; conditions: Homo sapiens, 72 h; for inhibition at 3.3 µM: Compound concentration: 3.3 μM; for inhibition at 3.3 µM / inhibition at 10 µM: read-out: Antiproliferative activity in cancerous cells, SW480 (inhibition of cell growth); for inhibition at 10 µM: Compound concentration: 10 μM; for inhibition at 30 µM: Compound concentration: 30 μM, read-out: Antiproliferative activity in cancerous cells, SW480
Experimental: (§1) The antiproliferative activity of a compound was determined in the following cell lines: MDA-MB-231 (breast cancer), HepG2 (liver cancer), SW480 (colon cancer), B16F10 (malignant melanoma), A431 (epidermoid carcinoma), A549 (lung adenocarcinoma), and HeLa (cervical cancer). MDA-MB-231, HepG2, SW480, B16F10, and A431 cells were cultured in Dulbecco's modified Eagle's medium (DMEM) containing 10% fetal bovine serum (FBS). HeLa cells were cultured in MEM/EBSS (MEM) containing 10% FBS. A549 cells were maintained in Kaighn's modification of Ham's F-12 medium containing 10% FBS. A Cell Counting Kit-8 (CCK-8) was used to measure the cell viability of different cells following treatment with the compound.
(§2) Briefly cells were seeded in a 96-well plate at a density of 2,000-5,000 cells/well. Following attachment, the cells were treated with the compound in media at a compound concentration of 3.3 μM, 10 μM, or 30 μM. After the cells were incubated at 37° C. for 72 h, a CCK-8 solution (10 μL) was added to each well. After incubation at 37° C. for 4 h, the absorbance value of each well was determined using a multi-well plate reader at 450 nm. The wells treated with DMSO were taken as a vehicle control. Data were also obtained similarly for all the replicates and the percentage of cell viability was determined with respect to the DMSO-treated cells. The results are summarized in Tables 2-4, wherein A represents no less than […] of cell growth; B represents no less than 30% but less than 50% inhibition of cell growth; and C represents less than 30% inhibition of cell growth.

[2] = system: B16F10 (malignant melanoma); experiment: Antiproliferative activity (CCK-8 cell viability), B16F10; conditions: Mus musculus, 72 h, read-out: Antiproliferative activity in cancerous cells, B16F10 (inhibition of cell growth); for inhibition at 3.3 µM: B16-F10, Compound concentration: 3.3 μM; for inhibition at 10 µM: B16-F10, Compound concentration: 10 μM
Experimental: as §1, §2

[3] = system: A431 (epidermoid carcinoma); experiment: Antiproliferative activity (CCK-8 cell viability), A431; conditions: Homo sapiens, 72 h; for inhibition at 3.3 µM: A-431, Compound concentration: 3.3 μM; for inhibition at 3.3 µM / inhibition at 10 µM: read-out: Antiproliferative activity in cancerous cells, A431 (inhibition of cell growth); for inhibition at 10 µM: A-431, Compound concentration: 10 μM; for inhibition at 30 µM: A-431, Compound concentration: 30 μM, read-out: Antiproliferative activity in cancerous cells, A431
Experimental: as §1, §2

[4] = system: MDA-MB-231 (breast cancer); experiment: Antiproliferative activity (CCK-8 cell viability), MDA-MB-231; conditions: Homo sapiens, 72 h; for inhibition at 3.3 µM: Compound concentration: 3.3 μM; for inhibition at 3.3 µM / inhibition at 10 µM: read-out: Antiproliferative activity in cancerous cells, MDA-MB-231 (inhibition of cell growth); for inhibition at 10 µM: Compound concentration: 10 μM
Experimental: as §1, §2

[5] = system: HepG2 (liver cancer); experiment: Antiproliferative activity (CCK-8 cell viability), HepG2; conditions: Homo sapiens, 72 h; for inhibition at 3.3 µM: Compound concentration: 3.3 μM; for inhibition at 3.3 µM / inhibition at 10 µM: read-out: Antiproliferative activity in cancerous cells, HepG2 (inhibition of cell growth); for inhibition at 10 µM: Compound concentration: 10 μM
Experimental: as §1, §2

[6] = system: A549 (lung adenocarcinoma); experiment: Antiproliferative activity (CCK-8 cell viability), A549; conditions: Homo sapiens, 72 h; for inhibition at 3.3 µM: Compound concentration: 3.3 μM; for inhibition at 3.3 µM / inhibition at 10 µM: read-out: Antiproliferative activity in cancerous cells, A549 (inhibition of cell growth); for inhibition at 10 µM: Compound concentration: 10 μM; for inhibition at 30 µM: Compound concentration: 30 μM, read-out: Antiproliferative activity in cancerous cells, A549
Experimental: as §1, §2

[7] = system: HeLa (cervical cancer); experiment: Antiproliferative activity (CCK-8 cell viability), HeLa; conditions: Homo sapiens, 72 h, read-out: Antiproliferative activity in cancerous cells, HELA (inhibition of cell growth); for inhibition at 3.3 µM: Compound concentration: 3.3 μM; for inhibition at 10 µM: Compound concentration: 10 μM
Experimental: as §1, §2

SMILES | inhibition at 3.3 µM [1] [%] | inhibition at 10 µM [1] [%] | inhibition at 3.3 µM [2] [%] | inhibition at 10 µM [2] [%] | inhibition at 3.3 µM [3] [%] | inhibition at 10 µM [3] [%] | inhibition at 3.3 µM [4] [%] | inhibition at 10 µM [4] [%] | inhibition at 3.3 µM [5] [%] | inhibition at 10 µM [5] [%] | inhibition at 3.3 µM [6] [%] | inhibition at 10 µM [6] [%] | inhibition at 3.3 µM [7] [%] | inhibition at 10 µM [7] [%] | inhibition at 30 µM [1] [%] | inhibition at 30 µM [3] [%] | inhibition at 30 µM ([4]; Compound concentration: 30 μM, read-out: Antiproliferative activity in cancerous cells, MDA-MB-231) [%] | inhibition at 30 µM ([5]; Compound concentration: 30 μM, read-out: Antiproliferative activity in cancerous cells, HepG2) [%] | inhibition at 30 µM [6] [%]
O=C(O)CC1=C(Cc2ccc(Oc3ccc(F)cc3)cc2)/C(=C/c2ccc(Oc3ccc(F)cc3)cc2)c2ccc(F)cc21 [A107, (Z)-2-(5-Fluoro-2-(4-(4-fluorophenoxy)benzyl)-1-(4-(4-fluorophenoxy)-benzylidene)-1H-inden-3-yl)acetic acid] | ≥ 50 | ≥ 50 | ≥ 50 | ≥ 50 | ≥ 50 | ≥ 50 | ≥ 50 | ≥ 50 | ≥ 50 | ≥ 50 | ≥ 50 | ≥ 50 | ≥ 50 | ≥ 50 | – | – | – | – | –
O=C(O)CC1=C(Cc2ccc(Oc3ccc(F)cc3)cc2)/C(=C/c2ccc(Cc3ccc(F)cc3)cc2)c2ccc(F)cc21 [A112, (Z)-2-(5-Fluoro-1-(4-(4-fluorobenzyl)benzylidene)-2-(4-(4-fluorophenoxy)-benzyl)-1H-inden-3-yl)acetic acid] | ≥ 50 | ≥ 50 | 30 to 50 | ≥ 50 | ≥ 50 | ≥ 50 | ≥ 50 | ≥ 50 | 30 to 50 | ≥ 50 | ≥ 50 | ≥ 50 | ≥ 50 | ≥ 50 | – | – | – | – | –
CC1=C(CC(O)CO)c2ccccc2/C1=C\c1ccc(Oc2ccc(F)cc2)cc1 (centres unmarked) [A203, (Z)-3-(1-(4-(4-Fluorophenoxy)benzylidene)-2-methyl-1H-inden-3-yl)propane-1,2-diol] | < 30 | 30 to 50 | < 30 | ≥ 50 | 30 to 50 | ≥ 50 | < 30 | ≥ 50 | < 30 | < 30 | < 30 | ≥ 50 | < 30 | ≥ 50 | – | – | – | – | –
CC1=C(CCOC(=O)n2ccnc2)c2cc(F)ccc2/C1=C\c1ccc(Oc2ccc(F)cc2)cc1 [A204, (Z)-2-(5-Fluoro-1-(4-(4-fluorophenoxy)benzylidene)-2-methyl-1H-inden-3-yl)ethyl 1H-imidazole-1-carboxylate] | < 30 | < 30 | < 30 | < 30 | < 30 | < 30 | < 30 | < 30 | < 30 | < 30 | < 30 | < 30 | < 30 | < 30 | 30 to 50 | < 30 | 30 to 50 | < 30 | 30 to 50
CC1=C(CCOC(=O)N(C)N)c2cc(F)ccc2/C1=C\c1ccc(Oc2ccc(F)cc2)cc1 [A205, (Z)-2-(5-Fluoro-1-(4-(4-fluorophenoxy)benzylidene)-2-methyl-1H-inden-3-yl)ethyl 1-methylhydrazine-1-carboxylate] | < 30 | < 30 | < 30 | < 30 | < 30 | < 30 | < 30 | ≥ 50 | 30 to 50 | ≥ 50 | < 30 | < 30 | 30 to 50 | ≥ 50 | 30 to 50 | 30 to 50 | – | – | 30 to 50
CC1=C(CC(=O)O)c2cc(F)ccc2/C1=C\c1cccc(CNc2ccccc2)c1 [B14, (Z)-2-(5-Fluoro-2-methyl-1-(3-((phenylamino)methyl)benzylidene)-1H-inden-3-yl)acetic acid] | < 30 | < 30 | < 30 | 30 to 50 | < 30 | < 30 | < 30 | 30 to 50 | < 30 | < 30 | ≥ 50 | ≥ 50 | 30 to 50 | 30 to 50 | 30 to 50 | 30 to 50 | – | – | 30 to 50
CC1=C(CC(=O)O)c2cc(F)ccc2/C1=C\c1ccc(CN(CCc2ccccc2)c2ccccc2)cc1 [B19, (Z)-2-(5-Fluoro-2-methyl-1-(4-((phenethyl(phenyl)amino)methyl)benzylidene)-1H-inden-3-yl)acetic acid] | 30 to 50 | ≥ 50 | < 30 | ≥ 50 | < 30 | ≥ 50 | ≥ 50 | ≥ 50 | < 30 | ≥ 50 | ≥ 50 | ≥ 50 | 30 to 50 | ≥ 50 | – | – | – | – | –
CC1=C(CC(=O)O)c2cc(F)ccc2/C1=C\c1ccc(OCCc2ccccc2)cc1 [B30, (Z)-2-(5-Fluoro-2-methyl-1-(4-phenethoxybenzylidene)-1H-inden-3-yl)acetic acid] | < 30 | ≥ 50 | < 30 | < 30 | ≥ 50 | ≥ 50 | < 30 | ≥ 50 | < 30 | ≥ 50 | 30 to 50 | ≥ 50 | < 30 | ≥ 50 | – | – | – | – | –
CC1=C(CC(=O)O)c2cc(F)ccc2/C1=C\c1ccc(OCCc2ccc(F)cc2)cc1 [B31, (Z)-2-(5-Fluoro-1-(4-(4-fluorophenethoxy)benzylidene)-2-methyl-1H-inden-3-yl)acetic acid] | < 30 | < 30 | ≥ 50 | ≥ 50 | 30 to 50 | ≥ 50 | < 30 | ≥ 50 | < 30 | ≥ 50 | 30 to 50 | 30 to 50 | < 30 | ≥ 50 | – | – | – | – | –
